According to patent publication US9611230B2, “1,3,4-oxadiazole benzoic acid compounds and their use for nonsense suppression and the treatment of disease” (PTC Therapeutics, Inc., priority 2004, dated 2017):

SMILES	melting point
O=C(O)c1cccc(-c2noc(-c3ccccc3)c2C(=O)O)c1 [Compound 483]	255 to 257 °C
CC(C)c1ccc(-c2nnc(-c3cccc(C(=O)O)c3Cl)o2)cc1 [Compound 401]	152 to 155 °C
COc1ccc(-c2n[nH]c(-c3cccc(C(=O)O)c3)n2)cc1OC [Compound 460]	275 to 278 °C
O=C(O)c1cccc(-c2cc(-c3ccc(F)cc3)on2)c1 [Compound 476]	266.5 to 268 °C
Cc1ccc(-c2cc(-c3cccc(C(=O)O)c3)on2)cc1 [Compound 505]	253 to 254 °C
CC(C)c1ccc(-c2nsc(-c3cccc(C(=O)O)c3)n2)cc1 [Compound No. 326, 3-[3-(4-isopropylphenyl)-[1,2, 4]thiadiazol-5-yl]benzoic acid]	166 to 168 °C
Cc1ccccc1-c1cnc(-c2ccc(C(=O)O)cc2)o1 [Compound 643]	284 to 286 °C
O=C(O)c1ccc(-c2ncc(-c3cc(F)ccc3F)o2)cc1 [Compound 630]	301 to 302 °C
CC(C)c1cccc(-c2cnc(-c3cccc(C(=O)O)c3)o2)c1 [Compound 591]	213 to 215 °C
O=C(O)c1cccc(-c2nnc(-c3ccc(Cl)nc3Cl)o2)c1 [Compound 272]	205 to 208 °C
O=C(O)c1cccc(-c2ncc(-c3cccc(C(F)(F)F)c3)o2)c1 [Compound 585]	250 to 251.5 °C
O=C(O)c1ccc(-c2ncc(-c3cccc(OC(F)(F)F)c3)o2)cc1 [Compound 542]	284 to 285 °C
COc1ccccc1-c1n[nH]c(-c2cccc(C(=O)O)c2)n1 [Compound 459]	287 to 290 °C
Cc1cccc(-c2cnc(-c3cccc(C(=O)O)c3)o2)c1 [Compound 589]	194 to 195 °C
CC(C)(C)C1CCC(c2nnc(-c3cccc(C(=O)O)c3)o2)CC1 (stereo not drawn) [Compound 622]	245 to 247 °C
O=C(O)c1cccc(-c2nc(-c3ccc4c(c3)OCO4)no2)c1 [Compound 510]	245 to 246 °C
O=C(O)c1ccc(-c2ncc(-c3ccc(Oc4ccccc4)cc3)o2)cc1 [Compound 647]	220 to 222 °C
O=C(O)c1cccc(-c2cc(-c3ccc(Cl)cc3)no2)c1 [Compound No. 503, 3-[3-(4-chlorophenyl)isoxazol-5-yl]benzoic acid]	265 to 266 °C
O=C(O)c1cccc(-c2cc(-c3ccccc3)on2)c1 [Compound 477]	245 to 247 °C
CN(C)c1cccc(-c2nnc(-c3ccccc3C(=O)O)o2)c1 [Compound 609]	71 to 78 °C
CC(C)c1ccc(-c2cnc(-c3cccc(C(=O)O)c3)o2)cc1 [Compound No. 288, 3-[5-(4-isopropylphenyl)-oxazol-2-yl]benzoic acid]	150 to 153 °C

SMILES	melting point
CCOc1ccc(-c2n[nH]c(-c3cccc(C(=O)O)c3)n2)cc1 [Compound 461]	295 to 298 °C
CC(C)c1ccc(-c2cc(-c3cccc(C(=O)O)c3)on2)cc1 [Compound 291]	200 to 212 °C
COc1cccc(-c2cc(-c3cccc(C(=O)O)c3)no2)c1 [Compound 481]	201 to 203 °C
CC(C)c1ccc(-c2cnc(-c3cccc(C(=O)O)c3)s2)cc1 [Compound No. 310, 3-[5-(4-Isopropyl-phenyl)thiazol-2-yl]benzoic acid]	218 to 220 °C
O=C(O)c1ccc(-c2ncc(-c3cc(F)cc(F)c3)o2)cc1 [Compound 641]	273 to 274 °C
O=C(O)c1cccc(-c2nnc(-c3c[nH]c4ccccc34)o2)c1 [Compound 319]	304 to 320 °C
CC(C)(C)c1ccc(-c2cnc(-c3cccc(C(=O)O)c3)o2)cc1 [Compound 592]	224 to 225 °C
O=C(O)c1cccc(-c2ncc(-c3ccc(F)cc3)o2)c1 [Compound 581]	255 to 256 °C
O=C(O)c1ccc(-c2cc(-c3ccccc3F)no2)cc1 [Compound 535]	302 to 303 °C
O=C(O)c1cccc(-c2nc(-c3ccc(Cl)cc3)no2)c1 [Compound 508]	299 to 300 °C
CC(C)c1ccc(-c2cc(-c3cccc(C(=O)O)c3)no2)cc1 [Compound 290]	222 to 225 °C
COc1cccc(-c2cnc(-c3cccc(C(=O)O)c3)o2)c1 [Compound 594]	207 to 208 °C
O=C(O)c1cccc(-c2nc(-c3ccccc3)n[nH]2)c1 [Compound 427]	> 300 °C
CC(C)(C)C1CCC(c2nnc(-c3ccc(C(=O)O)cc3)o2)CC1 (stereo not drawn) [Compound 621]	258 to 261 °C
COc1ccc(-c2noc(-c3cccc(C(=O)O)c3)n2)cc1 [Compound 509]	281.5 to 283 °C
O=C(O)c1cccc(-c2nc(-c3ccccc3F)no2)c1 [Compound No. 506, 3-[3-(2-fluorophenyl)-[1,2,4]oxadiazole-5-yl] benzoic acid]	233 to 234 °C
O=C(O)c1cccc(-c2ncc(-c3cccc(F)c3)o2)c1 [Compound 580]	223 to 224.5 °C
O=C(O)c1cccc(-c2nc(-c3ccc(-c4ccccc4)cc3)n[nH]2)c1 [Compound 429]	> 300 °C
O=C(O)c1cccc(-c2noc(-c3ccccc3)c2CO)c1 [Compound 484]	215 to 216 °C
O=C(O)c1cccc(-c2nc(-c3cccnc3)n[nH]2)c1 [Compound 428]	> 310 °C

Continued, values first:

melting point	SMILES
187 to 189 °C	CN(C)c1cccc(-c2nnc(-c3cccc(C(=O)O)c3)o2)c1 [Compound 2]
249 to 251 °C	COc1ccc(-c2cnc(-c3ccc(C(=O)O)cc3)o2)cc1 [Compound 637]
322 to 323 °C	O=C(O)c1ccc(-c2cc(-c3ccc(F)cc3)no2)cc1 [Compound 537]
253 to 255 °C	CC(C)c1ccc(-c2noc(-c3ccc(C(=O)O)cc3)n2)cc1 [Compound No. 140, 4-[3-(4-isopropylphenyl)-1,2,4-oxadiazol-5-yl]benzoic acid]
> 275 °C	O=C(O)c1ccc(-c2nnc(-c3ccccc3)o2)cc1 [Compound 596]
259 to 261 °C	O=C(O)c1ccc(-c2ncc(-c3ccc(Br)cc3)o2)cc1 [Compound 642]
237 to 239 °C	CC(C)(C)c1ccc(-c2nc(-c3ccc(C(=O)O)cc3)no2)cc1 [Compound 141]
320.5 to 322.5 °C	O=C(O)c1ccc(-c2cc(-c3ccc(Cl)cc3)no2)cc1 [Compound 540]
264 to 265 °C	O=C(O)c1ccc(-c2ncc(-c3cccc(F)c3)o2)cc1 [Compound 553]
227 to 229 °C	CC(C)c1cccc(-c2nnc(-c3ccc(C(=O)O)cc3)o2)c1 [Compound 7]
246 to 247 °C	O=C(O)c1ccc(-c2ncc(-c3ccsc3)o2)cc1 [Compound 558]
247 to 248 °C	CN(C)c1cccc(-c2nnc(-c3ccc(C(=O)O)cc3)o2)c1 [Compound 3]
174 to 177 °C	COc1ccc(-c2nnc(-c3ccc(C(C)C)cc3)o2)cc1C(=O)O [Compound 402]
> 285 °C	O=C(O)c1ccc(-c2nnc(-c3ccnc(Cl)c3)o2)cc1 [Compound 225]
272 to 274 °C	CN(C)c1ccc(-c2nnc(-c3cccc(C(=O)O)c3)o2)cn1 [Compound 223]
269 to 270 °C	O=C(O)c1ccc(-c2ncc(-c3ccc4c(c3)OCO4)o2)cc1 [Compound 557]
> 310 °C	O=C(O)c1ccc(-c2nnc(-c3ccc(C(=O)N4CCCCC4)cc3)o2)cc1 [Compound 286]
228 to 235 °C	CN(C)C(=O)c1ccc(-c2nnc(-c3cccc(C(=O)O)c3)o2)cc1 [Compound 279]
197 to 200 °C	CN(C)c1ccc(-c2nnc(-c3ccccc3C(=O)O)o2)cc1 [Compound 606]

melting point	SMILES
222 to 224 °C	O=C(O)c1ccc(-c2ncc(-c3ccc(OC(F)(F)F)cc3)o2)cc1 [Compound 546]
235 to 237 °C	O=C(O)c1cccc(-c2nnc(-c3ccc(N4CCOCC4)cc3)o2)c1 [Compound No. 82, 3-[5-(4-morpholin-4-yl-phenyl)-[1,3,4]oxadiazol-2-yl]benzoic acid]
190 to 192 °C	O=C(O)c1cccc(-c2nnc(-c3ccccc3)o2)c1 [Compound 615]
279 to 282 °C	O=C(O)c1cccc(-c2nnc(-c3ccc(N4CCN(c5ccccc5)CC4)cc3)o2)c1 [Compound 84]
258 to 259 °C	CC(C)(C)c1ccc(-c2cnc(-c3ccc(C(=O)O)cc3)o2)cc1 [Compound 636]
241 to 243 °C	COc1ccc(-c2cnc(-c3ccc(C(=O)O)cc3)o2)cc1OC [Compound 547]
305 to 306 °C	COc1ccccc1-c1cnc(-c2ccc(C(=O)O)cc2)o1 [Compound 645]
> 270 °C	O=C(O)c1cccc(-c2nnc(-c3ccc4[nH]ccc4c3)o2)c1 [Compound 316]
295 to 297 °C	O=C(O)c1ccc(-c2ncc(-c3ccc(F)c(Cl)c3)o2)cc1 [Compound 649]
282 to 291 °C	CC(C)c1ccc(NC(=O)c2nnc(-c3ccc(C(=O)O)cc3)o2)cc1 [Compound 284]
243 to 245 °C	CN(C)c1ccc(Cc2nnc(-c3ccc(C(=O)O)cc3)o2)cc1 [Compound 86]
> 300 °C	CC(C)c1cccc(-c2nnc(-c3ccc(C(=O)[O-])cc3)o2)c1.[Na+] [Compound 628]
> 310 °C	O=C(O)c1cccc(-c2nnc(-c3cccc4[nH]ccc34)o2)c1 [Compound 318]
307 to 308 °C	Cc1ccc(-c2cc(-c3ccc(C(=O)O)cc3)on2)cc1 [Compound 541]
253 to 256 °C	O=C(O)c1cccc(-c2nnc(-c3ccc(C(=O)N4CCCCC4)cc3)o2)c1 [Compound 285]
275 to 277 °C	O=C(O)c1cccc(-c2nnc(-c3ccc(N4CCCCC4)cc3)o2)c1 [Compound 83]
291 to 292 °C	O=C(O)c1ccc(-c2ncc(-c3ccc(F)c(F)c3)o2)cc1 [Compound 640]
275 to 278 °C	O=C(O)c1ccc(-c2nnc(-c3ccnc(Br)c3)o2)cc1 [Compound 292]
